Results published in EP4813463A2, “TYK2 INHIBITORS AND COMPOSITIONS AND METHODS THEREOF” (Lynk Pharmaceuticals Co. Ltd., priority 2023, dated 2024).
Like-named read-outs stand apart in the source and are kept apart here.

Experiments:
TYK2-JH2 domain = biological target: T1, TYK2-JH2 domain (Homo sapiens, UniProt P29597); assay: Binding activity test for JH2 domain of TYK2 (Tb-antibody/tracer FRET); conditions: for IC50: JH2 domain enzyme, 60 min at 25°C, then 4°C overnight, read-out: TYK2 JH2 Binding IC50
T1 construct: JAK1-JH2 domain or TYK2-JH2 domain enzyme in assay buffer
T1 sequence (P29597 589-875 limits assumed): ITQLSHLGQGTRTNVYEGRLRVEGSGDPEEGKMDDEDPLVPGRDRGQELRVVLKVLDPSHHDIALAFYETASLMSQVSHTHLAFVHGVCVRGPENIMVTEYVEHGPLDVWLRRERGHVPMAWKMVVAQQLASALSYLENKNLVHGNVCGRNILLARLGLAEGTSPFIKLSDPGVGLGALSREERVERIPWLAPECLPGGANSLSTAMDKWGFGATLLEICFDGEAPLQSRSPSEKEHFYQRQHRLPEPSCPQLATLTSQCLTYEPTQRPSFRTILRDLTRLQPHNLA
Procedure, shortened: (§1)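 Competitive TR-FRET binding: compounds dispensed as an 11-point 3-fold dilution series, then Tb-labelled antibody and tracer added to the JH2 protein system. Incubated at 25°C, then overnight at 4°C; FRET signal read on Envision and IC50 (nM) derived.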

IFNa pSTAT1 [1] = assay: Phosphorylation of STAT1 inhibition in HMC3 cells with HTRF assay; type: cell-based; conditions: Homo sapiens, HMC3 microglia cells, 50ng/mL hINFα 1 hour, read-out: HTRF_HMC3 IC 50 (IFNa pSTAT1)
Method: Seeding HMC3 cells into 96-well plate and incubate overnight. Pre-stimulation with recombinant human IFNα (Sino biological, H08Y), treat cells with compound with different concentration for 1hr. After compound treatment, stimulate cells with 50ng/mL hINFα for another 1 hour (for CCF-STTG1 cells IFNα induction time is 30 mins). After compound treatment and cytokine stimulation, dump old medium and lyse cells with supplemented lysis buffer provided by the HTRF kit (Revvity, 63ADK026PEG) for 30 min at room temperature under shaking. After homogenization by pipetting up and down, transfer 16 µL of cell lysate from the 96-well cell-culture plate to a small volume white 384-well plate, and then add 4 µL of pre-mixed two ready-to-use antibody working solution into each wells. Cover the plate with a plate sealer and incubate it overnight at room temperature. Read the fluorescence emission at two different wavelengths (665nm and 620nm) on microplate reader (Molecular Device, SpectraMax i3X). Collect data and analyzed with GraphPad Prism.

IFNa pSTAT1 [2] = assay: Phosphorylation of STAT1 inhibition in HMC3 cells by Jess; type: cell-based; conditions: Homo sapiens; HMC3 microglia cells, 50ng/mL hINFα 1 hour, Jess western; read-out: Jess_HMC3 IC50 (IFNa pSTAT1)
Method: Seeding HMC3 cells into 12-well plate and incubate overnight. Pre-stimulation with recombinant human IFNα (Sino biological, H08Y), treat cells with compound with different concentration for 1hr. After compound treatment, stimulate HMC3 cells with 50ng/mL hINFα for another 1 hour (for CCF-STTG1 cells IFNα induction time is 30 mins). And then wash cells with DPBS once gently and lyse cells with pre-cooled RIPA buffer (Sigma, R0278-500ML) for 30min on ice to harvest cells. Centrifuge cell lysate for 20 mins at 12000rpm with freezer centrifuge (Thermo Scientific, Heraeus Fresco 21) to extract protein. Prepare samples with Jess Simple Wes kit (SM-WO04) and then run western blot on Jess simple western system (Protein simple, JS-4631). Collect data and analyzed with GraphPad Prism.

[3] = test system: Ba/F3-FL-TYK2-P760L cells; assay: Anti-proliferative assay in engineered Ba/F3 cells (Cell-Titer Glo, 72 h); type: cell-based; conditions: 72 h compound treatment, concentration that causes 50% growth inhibition, read-out: Baf3-FL-T2P760L
Procedure, shortened: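 Ba/F3 cells carrying Tel-dimerization/JAK kinase fusion, IL-3-independent, in RPMI-1640 + 10% FBS; 9-point 3-fold dilutions from 20 µM (0.1% DMSO) added after 24 h, 72 h at 37 °C. Viability by Cell-Titer Glo ATP luminescence; % inhibition versus DMSO cells, blank-corrected, giving IC50.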

JAK1-JH2 domain = biological target: T2, JAK1-JH2 domain (Homo sapiens, UniProt P23458); assay: Binding activity test for JH2 domain of JAK1 (Tb-antibody/tracer FRET); conditions: JH2 domain enzyme; 60 min at 25°C, then 4°C overnight; read-out: JAK1 JH2 Binding IC50
T2 construct: JAK1-JH2 domain or TYK2-JH2 domain enzyme in assay buffer
T2 sequence (P23458 583-855 limits assumed): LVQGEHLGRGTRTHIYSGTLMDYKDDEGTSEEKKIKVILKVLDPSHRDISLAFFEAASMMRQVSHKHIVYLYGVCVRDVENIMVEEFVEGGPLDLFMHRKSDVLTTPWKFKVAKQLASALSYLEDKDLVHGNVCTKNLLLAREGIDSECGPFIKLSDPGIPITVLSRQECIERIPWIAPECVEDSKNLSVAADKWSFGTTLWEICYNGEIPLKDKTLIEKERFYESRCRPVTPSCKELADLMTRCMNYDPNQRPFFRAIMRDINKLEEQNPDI
Procedure, shortened: as §1

Row | IC50 [3] [nM] | SMILES | IC50 (TYK2-JH2 domain) [nM] | IC50 (IFNa pSTAT1 [1]) [nM] | IC50 (IFNa pSTAT1 [2]) [nM] | JAK1/TYK2 selectivity (TYK2-JH2 domain; ratio of JAK1 JH2 to TYK2 JH2 binding IC50) | IC50 ([3]; Mus musculus, BaF3, 72 h) [nM] | IC50 (JAK1-JH2 domain) [nM]
1 | 0.395 | CCC(F)(F)c1cnc(NC(=O)C2CC2)cc1Nc1nn(C)c2ccc(C(O)C(F)(F)F)c(OC)c12 (single isomer, unassigned) [Example 193A, (S*)-N-(5-(1,1-Difluoropropyl)-4-((4-methoxy-1-methyl-5-(2,2,2-trifluoro-1-hydroxyethyl)-1H-indazol-3-yl)amino)pyridin-2-yl)cyclopropanecarboxamide] | 0.417 | 0.821 | 4.28 |  |  | 
2 |  | COC(=O)c1cnc(NC(=O)C2CC2)cc1Nc1nn(C)c2ccc(C(OC)C(F)F)c(OC)c12 (stereo not shown) [Example 68, Methyl 6-(cyclopropanecarboxamido)-4-((5-(2,2-difluoro-1-methoxyethyl)-4-methoxy-1-methyl-1H-indazol-3-yl)amino)nicotinate] | 0.14 | < 0.061 | 3.17 | 116.36 | 3.6 | 16.3
